Measured values taken from US5869460A, “Sulfated and phosphated saccharide derivatives, process for the preparation of the same and use thereof” (Sanwa Kaguku Kenkyusho Co., Ltd., priority 1995, dated 1999).

Tests used:
[1] = system: L-selectin; conditions: in vitro, plastic plate; BIOCHEM. BIOPHY. RES. COM. 190, 426 (1993); cited from earlier work
[2] = system: lung injury model, lgG immunocomplex; conditions: INT. IMMUNOL. 7, 1107 (1995); cited from earlier work
[3] = system: lung injury model, activation of whole body complements by CVF; conditions: INT. IMMUNOL. 7, 1107 (1995); cited from earlier work
[4] = system: lung damage model induced by cobra venom factor (CVF); infiltration in neutrocyte (myeloperoxidase); assay: Anti-inflammatory action to lung damage model induced by CVF: myeloperoxidase activity as index of infiltration in neutrocyte; format: in vivo, Lewis rats; conditions: for inhibition in vivo at 0.2 mg: Rattus norvegicus, iv, 0.5 h, read-out: Inhibition rate (%), myeloperoxidase activity as index of infiltration in neutrocyte
Experimental: (§1) Anti-inflammatory action to lung damage model induced by CVF Compounds obtained by Examples and an exemplary known compound (sulfatide) were selected as Test Compounds to check an inflammatory action thereof to a lung damage model induced by cobra venom factor (CVF), in accordance with the method described by M. S. Mulligan et al ["J. IMMUNOL.", Vol.151, page 6410 (1993); and "INT. IMMUNOL.", Vol. 7, page 1107 (1995)].
(§2) Namely, the test compound was intravenously injected by an amount of 0.2 mg/rat to test animals (Lewis rats, age of 8 weeks, 5 animals in each group). After lapsed 5 minutes from administration, CVF (20U/2 ml/kg) was administered in a tail vein, and after 30 minutes, a laparotomy was carried out under nembutal anesthesia to perfuse the lung with phosphate-buffered saline (PBS, pH7.4) by injecting the same from right ventricle and to exenterate the lung. The extracted lung was homogenized with phosphate buffer (pH 7.4), centrifuged to collect a supernatant, and determined absorbance which was admitted as index of bleeding (It measures an amount of hemoglobin and thus detection wave-length was set to 541 nm).
On the other hand, the precipitation obtained by centrifugation was sonicated in the presence of cetrimide and centrifuged to obtain a supernatant, an activity myeloperoxidase therein being measured as an index of infiltration in neutrocyte.
(§3) Each inhibition rate (%) was calculated by
(§4) 100×[1-(value of test compound-value of negative control)/(value of positive control-value of negative control)].

[5] = system: lung damage model induced by cobra venom factor (CVF); bleeding; assay: Anti-inflammatory action to lung damage model induced by CVF: index of bleeding (hemoglobin absorbance, 541 nm, in lung homogenate supernatant); format: in vivo, Lewis rats; conditions: for inhibition in vivo at 0.2 mg: Rattus norvegicus, iv, 0.5 h, read-out: Inhibition rate (%), index of bleeding
Experimental: as §1, §2, §3, §4

For `CCCCCCCCCCCCCCC(CCCCCCCCCCCCCC)CO[C@@H]1O[C@H](CO)[C@@H](O[C@@H]2O[C@H](CO)[C@H](O)[C@H](OS(=O)(=O)O)[C@H]2O)[C@H](O)[C@H]1O` [2-tetradesyl hexadesyl O-β-D-galactopyranosyl-(1→4)-β-D-glucopyranoside 3'-sulfate], the “binding specificity to L-selectin” value [1] is given as “show a binding specificity to L-selectin”.

In the case of `CCCCCCCCCCCCCCC(CCCCCCCCCCCCCC)CO[C@@H]1O[C@H](CO)[C@H](O)[C@H](OS(=O)(=O)O)[C@H]1O` [2-tetradesyl hexadesyl β-D-galactopyranoside 3-sulfate], the inflammation inhibition effect [2] is listed as “shows inflammation inhibition effect”, the “binding specificity to L-selectin” value [1] is listed as “show a binding specificity to L-selectin” and the inflammation inhibition effect [3] is listed as “shows inflammation inhibition effect”.

With `CCCCCCCCCCCCCCC(CCCCCCCCCCCCCC)CO[C@@H]1O[C@H](CO)[C@H](O)[C@H](OP(=O)(O)O)[C@H]1O[C@@H]1O[C@@H](C)[C@@H](O)[C@@H](OP(=O)(O)O)[C@@H]1O` [Example 28-2, tetrasodium 2-tetradecylhexadecyl O-α-L-fucopyranosyl-(1→2)-β-D-galactopyranoside 3,3'-diphosphate] the inhibition in vivo at 0.2 mg [4] was 55% and the inhibition in vivo at 0.2 mg [5] was 63%.

Molecule `CCCCCCCCCCCCCCC(CCCCCCCCCCCCCC)CO[C@@H]1O[C@H](COS(=O)(=O)O)[C@H](O)[C@H](OS(=O)(=O)O)[C@H]1O[C@@H]1O[C@@H](C)[C@@H](O)[C@@H](O)[C@@H]1O` [Example 29, Disodium 2-tetradecylhexadesyl O-α-L-fuconyranosyl-(1→2)-β-D-galactopyranoside 3,6-disulfate] has an inhibition in vivo at 0.2 mg [4] of 65% and an inhibition in vivo at 0.2 mg [5] of 67%.

With `CCCCCCCCCCCCCCC(CCCCCCCCCCCCCC)CO[C@@H]1O[C@H](COS(=O)(=O)O)[C@H](O)[C@H](OS(=O)(=O)O)[C@H]1O[C@@H]1O[C@@H](C)[C@@H](O)[C@@H](OS(=O)(=O)O)[C@@H]1O` [Example 30, Trisodium 2-tetradecylhexadecyl O-α-L-fucopyranosyl-(1→2)-β-D-galactopyranoside 3,3',6-trisulfate] the inhibition in vivo at 0.2 mg [4] was 62% and the inhibition in vivo at 0.2 mg [5] was 70%.

In the case of Sulfatide [reference compound], the inflammation inhibition effect [2] is given as “shows inflammation inhibition effect”, the “Inhibition rate (%), myeloperoxidase activity as index of infiltration in neutrocyte” value ([4]; 0.2 mg/rat i.v., 5 min before CVF (20U/2 ml/kg, tail vein), lung precipitation, Table 2) is given as 50% and the “Inhibition rate (%), index of bleeding” value ([5]; 0.2 mg/rat i.v., 5 min before CVF (20U/2 ml/kg, tail vein), hemoglobin absorbance at 541 nm, Table 1) is given as 53%. For the same molecule, the inflammation inhibition effect [3] was “shows inflammation inhibition effect”.
